Experimental data from EP0467099A2, “Substituted acrylophenons” (BAYER AG, priority 1990, dated 1992).

Columns and labels:
Testpflanzen [1] = experiment: Post-emergence test (herbicidal damage rating); assay type: in vivo; conditions: plants 5 - 15 cm sprayed, rated after three weeks, result in words only; for Wirksamkeit (Schädigungsgrad der Pflanzen): compared with reference 2-[2-(4,6-Dimethoxy)-pyrimidinylthio]-benzoesäuremethylester (EP 223406/Bsp. 11); for Nutzpflanzenselektivität: crop selectivity compared with reference 2-[2-(4,6-Dimethoxy)-pyrimidinylthio]-benzoesäuremethylester (EP 223406/Bsp. 11)
Text: Lösungsmittel: 5 Gewichtsteile Aceton
Emulgator: 1 Gewichtsteil Alkylarylpolyglykolether
(§1) Zur Herstellung einer zweckmäßigen Wirkstoffzubereitung vermischt man 1 Gewichtsteil Wirkstoff mit der angegebenen Menge Lösungsmittel, gibt die angegebene Menge Emulgator zu und verdünnt das Konzentrat mit Wasser auf die gewünschte Konzentration.
Mit der Wirkstoffzubereitung spritzt man Testpflanzen, welche eine Höhe von 5 - 15 cm haben, so, daß die jeweils gewünschten Wirkstoffmengen pro Flächeneinheit ausgebracht werden. Die Konzentration der Spritzbrühe wird so gewählt, daß in 1000 I Wasser/ha die jeweils gewünschten Wirkstoffmengen ausgebracht werden. Nach drei Wochen wird der Schädigungsgrad der Pflanzen bonitiert in % Schädigung im Vergleich zur Entwicklung der unbehandelten Kontrolle.
Es bedeuten: • 0 % = keine Wirkung (wie unbehandelte Kontrolle) • 100 % = totale Vernichtung

Testpflanzen [2] = experiment: Pre-emergence test (herbicidal damage rating); assay type: in vivo; conditions: seeds watered 24 h after sowing, rated after three weeks, compared with reference 2-[2-(4,6-Dimethoxy)-pyrimidinylthio]-benzoesäuremethylester (EP 223406/Bsp. 11), result in words only
Text: Lösungsmittel: 5 Gewichtsteile Aceton Emulgator: 1 Gewichtsteil Alkylarylpolyglykolether
as §1
Samen der Testpflanzen werden in normalen Boden ausgesät und nach 24 Stunden mit der Wirkstoffzubereitung begossen. Dabei hält man die Wassermenge pro Flächeneinheit zweckmäßigerweise konstant. Die Wirkstoffkonzentration in der Zubereitung spielt keine Rolle, entscheidend ist nur die Aufwandmenge des Wirkstoffs pro Flächeneinheit. Nach drei Wochen wird der Schädigungsgrad der Pflanzen bonitiert in % Schädigung im Vergleich zur Entwicklung der unbehandelten Kontrolle. Es bedeuten: • 0 % = keine Wirkung (wie unbehandelte Kontrolle) • 100 % = totale Vernichtung

Q: How did the “Wirksamkeit (Schädigungsgrad der Pflanzen)” value (from here on “Wirksamkeit”) (Testpflanzen [1]) turn out when COc1cc(OC)nc(Oc2ccccc2C(=O)C=CN2CCCCCC2)n1 [Beispiel 1, 3-(1-Hexahydroazepino)-1-{2-[2-(4,6-dimethoxy)-pyrimidinyloxy]-phenyl}-prop-2-en-1-on] was run?
A: The value was “deutliche Überlegenheit”.

Q: What about the Nutzpflanzenselektivität (Testpflanzen [1]) of the same compound?
A: Its Nutzpflanzenselektivität is “deutliche Überlegenheit”.

Q: And the “Wirksamkeit” value (Testpflanzen [2])?
A: Its value is “deutliche Überlegenheit”.

Q: How did the “Wirksamkeit” value (Testpflanzen [1]) turn out when COc1cc(OC)nc(Oc2ccccc2C(=O)C(C)=CN(C)C)n1 [Beispiel 2, 3-Dimethylamino-2-methyl-1-{2-[2-(4,6-dimethoxy)-pyrimidinyloxy]-phenyl}-prop-2-en-1-on] was run?
A: The value was “deutliche Überlegenheit”.

Q: What about the Nutzpflanzenselektivität (Testpflanzen [1]) of the same compound?
A: The Nutzpflanzenselektivität was “deutliche Überlegenheit”.

Q: With COc1cc(OC)nc(Oc2ccccc2C(=O)C=P(c2ccccc2)(c2ccccc2)c2ccccc2)n1 [Beispiel 3, {2-[2-(4,6-Dimethoxy)-pyrimidinyloxy]-benzoyl}-methylentriphenylphosphoran] as the compound, how does the “Wirksamkeit” value (Testpflanzen [1]) read?
A: The value was “deutliche Überlegenheit”.

Q: What about the Nutzpflanzenselektivität (Testpflanzen [1]) of the same compound?
A: The Nutzpflanzenselektivität was “deutliche Überlegenheit”.
